According to PMC6138628, “Enhanced uptake of gH625 by blood brain barrier compared to liver in vivo: characterization of the mechanism by an in vitro model and implications for delivery” (Scientific Reports, 2018):
Where two headings read alike, the source gives them in different places. Residues, ends and D or L forms follow the SMILES beside them.

Columns and labels:
[1] = Membrane fluidity, Laurdan generalized polarization (GP); format: physicochemical; conditions: P/L molar ratio 0.5, after 10 min, 37 °C, 5 mM HEPES, 100 mM NaCl, pH 7.4
Experimental: The samples were vortexed and lyophilized overnight.
LUVs containing Laurdan were prepared to determine membrane fluidity. In order to insert Laurdan into the bilayer, it was added to lipid films before hydration. The peptide gH625 was added to LUVs at a P/L molar ratio of 0.5 and after 10 min the fluorescence spectra were recorded using a 1 cm path length quartz cell, thermostated at 25 °C or 37 °C. Spectra were corrected for the baseline signal. Laurdan emission spectra were recorded from 400 to 550 nm with λex 365 nm in the absence or presence of gH625 in 5 mM HEPES, 100 mM NaCl buffer (pH 7.4). Laurdan emission can shift from 440, in the ordered phase, to 490 in the disordered phase. The excitation generalized polarization (GP) was calculated as GP = (I440 − I490)/(I440 + I490) where I440 and I490 are the fluorescence intensities at the maximum emission wavelength in the ordered (λem 440 nm) and disordered (λem 490 nm) phases.
LUVs fluidity before and after the addition of gH625 were obtained using the fluorescent probe Laurdan[47],[48]. […] The Generalized Polarization (GP) is a parameter commonly used to quantify the change in the lipid fluidity. […] The GP parameter allowed quantifying the effect of the peptide (Table 1). […]

[2] = 0.1 mM lipid, 37 °C, 100% = Triton X-100, repeated at least three times
Experimental: Large unilamellar vesicles (LUVs) and small unilamellar vesicles (SUVs) consisting of PI/DOPE/DPPC/PS/Chol/SM (4/23/30/8/20/15 ratio in moles)[33],[34], DSPC/POPE/PI/PS/lysoPC/SM/DOPG (37/21/7/9/3/18/5 ratio in moles)[35], and when required containing Rho-PE and NBD-PE, were formulated in 5 mM HEPES, 100 mM NaCl, pH 7.4. LUVs were prepared using the extrusion method as previously reported; lipids were first dissolved in chloroform, then dried under a nitrogen gas stream and lyophilized overnight. For fluorescence experiments, buffer was added to dry lipid films and vortexed for 1 h; then the lipid suspension was freeze-thawed 6 times and extruded 20 times through polycarbonate membranes with 0.1 μm diameter pores to obtain LUVs. For circular dichroism measurements, peptide samples in SUVs were prepared using the following protocol. Lipids were dissolved in chloroform and added to an equal volume of peptide solution dissolved in TFE containing appropriate peptide concentration. The samples were vortexed and lyophilized overnight. The dry samples were rehydrated with phosphate buffer (5 mM) for 1 h and sonicated for 30 min.
Membrane lipid mixing was followed by the resonance energy transfer assay (FRET)[39].

[3] = Tryptophan quenching by acrylamide; format: physicochemical; conditions: peptide 4 µM, peptide/lipid 1/200, acrylamide up to 0.2 M, λex 295 nm, λem 340 nm
Experimental: A solution containing 4 µM of gH625 in the absence or presence of LUVs at a peptide/lipid molar ratio of 1/200, was titrated with the water-soluble quencher acrylamide (4 M mother solution). The maximal concentration of acrylamide in the samples is 0.2 M. Fluorescence was measured with λex 295 nm and λem 340 nm[43]. The data were analysed with the Stern-Volmer equation[43], F0/F = 1 + Ksv [Q], where F0 and F represent the fluorescence intensities in the absence and the presence of the quencher (Q), respectively. The Ksv is the Stern-Volmer quenching constant, and is correlated to the accessibility of the tryptophan residue to acrylamide. […] Ksv is thus determined by the amount of non-lipid-associated free peptide as well as the peptide fraction located on the surface of the bilayer.
The observed changes in the tryptophan emission upon binding to lipid vesicles indicate gH625 insertion into the hydrophobic region of the bilayers. We determined the accessibility of the tryptophan residues of membrane bound peptides towards acrylamide, a neutral, water-soluble quencher, which is unable to penetrate into the hydrophobic core of the lipid bilayer. In fact, tryptophan residues more deeply buried inside the membrane are less strongly quenched.

[4] = test system: human neuroblastoma and glioblastoma astrocytoma; parameters: method as in PMID 25792823; conditions: human neuroblastoma and glioblastoma astrocytoma cells; cited from earlier work

Compound: CC[C@H](C)[C@H](NC(=O)[C@H](CC(C)C)NC(=O)[C@H](C)NC(=O)[C@H](CC(N)=O)NC(=O)[C@H](Cc1ccc(O)cc1)NC(=O)[C@H](Cc1c[nH]cn1)NC(=O)[C@H](C)NC(=O)[C@H](Cc1c[nH]c2ccccc12)NC(=O)[C@H](CCCNC(=N)N)NC(=O)[C@@H](NC(=O)[C@H](CC(C)C)NC(=O)[C@@H](NC(=O)[C@H](CO)NC(=O)[C@H](C)NC(=O)[C@H](CC(C)C)NC(=O)CNC(=O)[C@@H](N)Cc1c[nH]cn1)[C@@H](C)O)[C@@H](C)O)C(=O)N[C@@H](CCCNC(=N)N)C(=O)N[C@@H](C)C(=O)N[C@@H](Cc1ccccc1)C(N)=O [gH625] (H-HGLASTLTRWAHYNALIRAF-NH2)
- Generalized polarization (GP) value, +gH625 ([1]; Laurdan in LUVs DSPC/POPE/PI/PS/lysoPC/SM/DOPG (37/21/7/9/3/18/5), no peptide 37 °C: 0.40): 0.49
- Generalized polarization (GP) value, +gH625 ([1]; Laurdan in LUVs PI/DOPE/DPPC/PS/Chol/SM (4/23/30/8/20/15), no peptide 37 °C: 0.19): 0.15
- Maximum peptide/lipid ratio (P/L), complete fusion of vesicles ([2]; LUVs DSPC/POPE/PI/PS/lysoPC/SM/DOPG (37/21/7/9/3/18/5)): 0.7
- Maximum peptide/lipid ratio (P/L), complete fusion of vesicles ([2]; LUVs PI/DOPE/DPPC/PS/Chol/SM (4/23/30/8/20/15)): 0.05
- Stern-Volmer quenching constant (Ksv) ([3]; BBB mimicking LUVs): 2.05 ± 0.08 M⁻¹
- Stern-Volmer quenching constant (Ksv) ([3]; liver mimicking LUVs): 3.04 ± 0.06 M⁻¹
- Percentage of uptake [4]: 80–90%
